Consider 15 compounds from ChEMBL document CHEMBL1125473, “A series of potent HIV-1 protease inhibitors containing a hydroxyethyl secondary amine transition state isostere: synthesis, enzyme inhibition, and antiviral activity” (J Med Chem, 1992).

Numbered stars: 1 amine (or outer) side, 2 acyl side, 3 side chain; on linkers, the order of the positions; unused ones are H or OH. Square brackets hold non-standard residues; d marks the D form. Peptide text beside a SMILES is read from it. X1 = O=C([C@H]1CCCN1C[C@@H](O)[C@@H](Cc1ccccc1)N[*:1])[*:2]

The IC50 is the concentration that gives 50% inhibition. A high value points to weaker potency. The term Ki denotes a measure of affinity in units of concentration, obtained from inhibition or displacement. A high value points to lower affinity.

The first assay has as its target T1, Human immunodeficiency virus type 1 protease (Human immunodeficiency virus 1, UniProt Q72874). The assay can be described thus: In vitro inhibition of HIV-Protease, using a peptide hydrolysis assay.
As to `N[C@@H](Cc1ccccc1)C(O)CN[C@@H](Cc1ccccc1)C(=O)NC1c2ccccc2C[C@H]1O` (stereo not given in full), the IC50 was 63 µM.

Compound `NC(=O)CC(NC(=O)c1ccc2ccccc2n1)C(=O)N[C@@H](Cc1ccccc1)[C@H](O)CN[C@@H](Cc1ccccc1)C(=O)NC1c2ccccc2C[C@H]1O` (stereo not given in full) yielded an IC50 of 0.0054 µM. Regarding `CC(C)(C)NC(=O)[C@@H]1C[C@@H]2CCCC[C@@H]2CN1C[C@@H](O)[C@H](Cc1ccccc1)NC(=O)OC(C)(C)C`, the IC50 is > 3 µM. `CC(C)(C)OC(=O)NC(CC(N)=O)C(=O)N[C@@H](Cc1ccccc1)C(O)CN[C@@H](Cc1ccccc1)C(=O)NC1c2ccccc2C[C@H]1O` (stereo not given in full) displayed an IC50 of 0.295 µM. Compound `CC[C@H](C)[C@H](NC(=O)[C@H]1CCCN1C[C@@H](O)[C@@H](Cc1ccccc1)NC(=O)[C@H](CC(N)=O)NC(=O)[C@H](CC(C)C)NC(=O)[C@@H](N)CO)C(=O)N[C@H](C(=O)OC)C(C)C` (H-SLN[X1]IV-OMe) displayed an inhibition constant Ki of 0.00024 µM. This lies in the sub-nanomolar range. `NC(=O)CC(N)C(=O)N[C@@H](Cc1ccccc1)[C@H](O)CN[C@@H](Cc1ccccc1)C(=O)NC1c2ccccc2C[C@H]1O` (stereo not given in full) yielded an IC50 of 1.1 µM. In the case of `CC(C)(C)OC(=O)N[C@@H](Cc1ccccc1)[C@H](O)CN1C[C@H]2CCCC[C@H]2C[C@H]1C(=O)NC1c2ccccc2CC1O` (stereo not given in full), the IC50 was > 3 µM.

Take `CC(C)(C)NC(=O)C(Cc1ccccc1)NCC(O)[C@H](Cc1ccccc1)NC(=O)OC(C)(C)C` (stereo not given in full): the IC50 is > 100 µM.

For another assay, the target named is T1, Human immunodeficiency virus type 1 protease. The assay can be described thus: In vitro inhibition of HIV protease, using a peptide hydrolysis assay.
`CC(C)(C)OC(=O)N[C@@H](Cc1ccccc1)[C@H](O)CN[C@H](Cc1ccccc1)C(=O)N[C@H]1c2ccccc2C[C@H]1O` had an IC50 of 7.3 µM.

The compound `CC(C)(C)OC(=O)N[C@@H](Cc1ccccc1)[C@H](O)CNC(C(=O)N[C@H]1c2ccccc2C[C@H]1O)C(O)c1ccccc1` (stereo in doubt; 12) came in with an IC50 of 8.5 µM. With `CC(C)(C)OC(=O)N[C@@H](Cc1ccccc1)[C@H](O)CNC(C(=O)N[C@H]1c2ccccc2C[C@H]1O)C(O)c1ccccc1` (stereo in doubt; 13), the IC50 is 8.6 µM. The IC50 values of the last two compounds are within 1.5-fold of each other. The same measure, in the same setting: under `CC(C)(C)OC(=O)N[C@@H](Cc1ccccc1)C(O)CNC(Cc1ccccc1)C(=O)NC(CO)c1ccccc1` (stereo not given in full) stands 38 µM. As for `CC(C)(C)OC(=O)N[C@@H](Cc1ccccc1)[C@@H](O)CN[C@@H](Cc1ccccc1)C(=O)N[C@H]1c2ccccc2C[C@H]1O`, the IC50 worked out at 4.7 µM. Same read-out and setting: under `CC(C)(C)OC(=O)N[C@@H](Cc1ccccc1)[C@H](O)CN[C@@H](Cc1ccccc1)C(=O)N[C@H]1c2ccccc2C[C@H]1O` stands 0.252 µM; under `CC(C)(C)OC(=O)N[C@@H](Cc1ccccc1)[C@@H](O)CN[C@H](Cc1ccccc1)C(=O)N[C@H]1c2ccccc2C[C@H]1O`, 23.4 µM.
